Data from patent publication US10815222B2, “Compounds for use in the treatment of kinetoplastid infection” (C.N.C.C.S. S.c.a.r.l. COLLEZIONE NAZIONALE DEI COMPOSTI …, priority 2016, dated 2020).

Tested on: Bloodstream form of Trypanosoma brucei, strain Lister 427
Assay: Trypanosoma brucei growth inhibition assay (CellTiter-Glo, 24 h)
Type: cell-based
Conditions: Trypanosoma brucei; T. Brucei Growth Inibition Assay, class symbols; read-out: T. Brucei GI EC50
In short: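 Bloodstream-form T. brucei Lister 427, 1500 parasites per well in supplemented IMDM with 10% FBS, were exposed to compound (DMSO ≤0.25% final) for 24 h at 37 °C. Viability was measured by CellTiter-Glo luminescence.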

Compound	EC50 [nM]
COc1ccc2nc(C)n(CC(=O)N3CCN(Cc4nccs4)C[C@H]3c3ncc(-c4cc5ccccc5nc4OC)[nH]3)c2c1 [(S)-2-(6-methoxy-2-methyl-1H-benzo[d]imidazol-1-yl)-1-(2-(5-(2-methoxyquinolin-3-yl)-1H-imidazol-2-yl)-4-(thiazol-2-ylmethyl)piperazin-1-yl)ethan-1-one]	< 100
COc1nc2ccccc2cc1-c1cnc(C2CN(C3CCS(=O)(=O)CC3)CCN2C(=O)Cc2c(C)[nH]c3ccc(F)cc23)[nH]1 (stereo not shown)	100 to 500
COc1nc2ccccc2cc1-c1cnc(C2CN(CC3CCOC3)CCN2C(=O)Cn2c(C)nc3ccc(F)cc32)[nH]1 (stereo not shown)	100 to 500
COc1nc2ccccc2cc1-c1cnc([C@@H]2CN(CC(F)(F)F)CCN2C(=O)Cn2c(C(F)(F)F)nc3ccccc32)[nH]1 [(S)-1-(2-(5-(2-methoxyquinolin-3-yl)-1H-imidazol-2-yl)-4-(2,2,2-trifluoroethyl)piperazin-1-yl)-2-(2-(trifluoromethyl)-1H-benzo[d]imidazol-1-yl)ethan-1-one]	< 100
COc1ccc2c(CC(=O)N3CCN(CC4CCOC4)CC3c3ncc(-c4cc5ccccc5nc4OC)[nH]3)coc2c1 (stereo not shown)	510 to 1000
COc1nc2ccccc2cc1-c1cnc([C@@H]2CN(Cc3noc(C)n3)CCN2C(=O)Cn2c(C(F)(F)F)nc3ccccc32)[nH]1 [(S)-1-(2-(5-(2-methoxyquinolin-3-yl)-1H-imidazol-2-yl)-4-((5-methyl-1,2,4-oxadiazol-3-yl)methyl)piperazin-1-yl)-2-(2-(trifluoromethyl)-1H-benzo[d]imidazol-1-yl)ethan-1-one]	< 100
COc1ccc2nc(C(F)(F)F)n(CC(=O)N3CCN(CCc4ccnn4C)CCC3c3ncc(-c4cc5ccccc5nc4OC)[nH]3)c2c1 (stereo not shown) [2-(6-methoxy-2-(trifluoromethyl)-1H-benzo[d]imidazol-1-yl)-1-(7-(5-(2-methoxyquinolin-3-yl)-1H-imidazol-2-yl)-4-(2-(1-methyl-1H-pyrazol-5-yl)ethyl)-1,4-diazepan-1-yl)ethan-1-one]	< 100
COc1nc2ccccc2cc1-c1cnc(C2CN(C3CCC3)CCN2C(=O)Cc2c(C)[nH]c3ccc(F)cc23)[nH]1 (stereo not shown)	100 to 500
O=C(Cc1c[nH]c2ccc(O)cc12)N1CCN(Cc2ccccc2)CC1c1ncc(-c2ccc3ccccc3c2)[nH]1 (stereo not shown)	1010 to 5000
COc1ccc2nc(C)n(CC(=O)N3CCN(CC4CCOC4)C[C@H]3c3ncc(-c4ccc(-c5ccccc5)nc4OC)[nH]3)c2c1 (stereo partly shown)	510 to 1000
COc1nc2ccccc2cc1-c1cnc(C2CN(CC3CCOC3)CCN2C(=O)c2ccc3ncccc3c2)[nH]1 (stereo not shown)	1010 to 5000
COc1ccc2nc(C)n(CC(=O)N3CCN(Cc4cocn4)C[C@H]3c3ncc(-c4cc5ccccc5nc4OC)[nH]3)c2c1 [(S)-2-(6-methoxy-2-methyl-1H-benzo[d]imidazol-1-yl)-1-(2-(5-(2-methoxyquinolin-3-yl)-1H-imidazol-2-yl)-4-(oxazol-4-ylmethyl)piperazin-1-yl)ethan-1-one]	< 100
COc1nc2ccccc2cc1-c1cnc(C2CS(=O)(=O)CCN2C(=O)Cc2c(C)[nH]c3ccc(F)cc23)[nH]1 (stereo not shown) [2-(5-fluoro-2-methyl-1H-indol-3-yl)-1-(3-(5-(2-methoxyquinolin-3-yl)-1H-imidazol-2-yl)-1,1-dioxidothiomorpholino)ethan-1-one]	100 to 500
CN1CCN(C(=O)Cc2ccccc2)C(c2ncc(-c3ccc4ccccc4c3)[nH]2)C1 (stereo not shown)	1010 to 5000
COc1ccc2nc(C(F)(F)F)n(CC(=O)N3CCN(Cc4cnccn4)C[C@H]3c3ncc(-c4cc5ccccc5nc4OC)[nH]3)c2c1 [(S)-2-(6-methoxy-2-(trifluoromethyl)-1H-benzo[d]imidazol-1-yl)-1-(2-(5-(2-methoxyquinolin-3-yl)-1H-imidazol-2-yl)-4-(pyrazin-2-ylmethyl)piperazin-1-yl)ethan-1-one]	< 100
COc1ccc2c(c1)C(CC(=O)N1CCN(CC3CCOC3)CC1c1ncc(-c3cc4ccccc4nc3OC)[nH]1)C(=O)N2 (stereo not shown)	1010 to 5000
O=C(Cc1c[nH]c2ncccc12)N1CCOCC1c1ncc(-c2ccc3ccccc3c2)[nH]1 (stereo not shown)	1010 to 5000
O=C(Cc1n[nH]c2ccccc12)N1CCN(CC2CC2)CC1c1ncc(-c2ccc3ccccc3c2)[nH]1 (stereo not shown)	1010 to 5000
Cc1[nH]c2ccccc2c1CC(=O)N1CCN(CCc2ccccc2)CC1c1ncc(-c2ccc3ccccc3c2)[nH]1 (stereo not shown)	510 to 1000
COc1ccc2nc(C(F)(F)F)n(CC(=O)N3CC[C@@H](NC4CCOC4)C[C@H]3c3ncc(-c4cc5ccccc5nc4OC)[nH]3)c2c1 (stereo partly shown)	100 to 500
COc1ccc2nc(C(F)(F)F)n(CC(=O)N3CCN(C4CCN(C)CC4)C[C@H]3c3ncc(-c4cc5ccccc5nc4OC)[nH]3)c2c1	100 to 500
COc1ccc2nc(C)n(CC(=O)N3CCN(CC4CCOC4)C[C@H]3c3ncc(-c4cnc5ccccc5c4)[nH]3)c2c1 (stereo partly shown)	510 to 1000

Compound	EC50 [nM]
COc1nc2ccccc2cc1-c1cnc(C2CN(C(C)C)CCN2C(=O)Cc2ccccc2)[nH]1 (stereo not shown)	1010 to 5000
COc1ccc2[nH]c(C)c(CC(=O)N3CCN(CCCC(N)=O)CC3c3ncc(-c4ccc5ccccc5c4)[nH]3)c2c1 (stereo not shown)	100 to 500
COc1nc2ccccc2cc1-c1cnc([C@@H]2CN(Cc3ccccc3F)CCN2C(=O)Cn2c(C(F)(F)F)nc3ccccc32)[nH]1	100 to 500
COc1nc2ccccc2cc1-c1cnc(C2CN(Cc3ccccc3)CCN2C(=O)CC2=C(C)NC3C=CC=CC23)[nH]1 (stereo not shown)	100 to 500
COc1nc2ccccc2cc1-c1cnc([C@@H]2CN(Cc3ncco3)CCN2C(=O)Cn2c(C(F)(F)F)nc3ccccc32)[nH]1 [(S)-1-(2-(5-(2-methoxyquinolin-3-yl)-1H-imidazol-2-yl)-4-(oxazol-2-ylmethyl)piperazin-1-yl)-2-(2-(trifluoromethyl)-1H-benzo[d]imidazol-1-yl)ethan-1-one]	< 100
COc1nc2ccccc2cc1-c1cnc(C2CN(S(C)(=O)=O)CCN2C(=O)Cc2ccccc2)[nH]1 (stereo not shown)	1010 to 5000
COc1nc2ccccc2cc1-c1cnc(C2CN(CC3CCOC3)CCN2C(=O)Cc2noc3ccccc23)[nH]1 (stereo not shown)	510 to 1000
COc1ccc2nc(C)n(CC(=O)N3CCN(Cc4nncn4C)C[C@H]3c3ncc(-c4cc5ccccc5nc4OC)[nH]3)c2c1 [(S)-2-(6-methoxy-2-methyl-1H-benzo[d]imidazol-1-yl)-1-(2-(5-(2-methoxyquinolin-3-yl)-1H-imidazol-2-yl)-4-((4-methyl-4H-1,2,4-triazol-3-yl)methyl)piperazin-1-yl)ethan-1-one]	510 to 1000
COc1ccc2nc(C(F)(F)F)n(CC(=O)N3CC[C@H](NC4COC4)C[C@H]3c3ncc(-c4cc5ccccc5nc4OC)[nH]3)c2c1 [2-(6-methoxy-2-(trifluoromethyl)-1H-benzo[d]imidazol-1-yl)-1-((2S,4S)-2-(5-(2-methoxyquinolin-3-yl)-1H-imidazol-2-yl)-4-(oxetan-3-ylamino)piperidin-1-yl)ethan-1-one]	< 100
COc1ccc2[nH]c(C)c(CC(=O)N3CCN(C)CCC3c3ncc(-c4ccc5ccccc5c4)[nH]3)c2c1 (stereo not shown) [2-(5-methoxy-2-methyl-1H-indol-3-yl)-1-(4-methyl-7-(5-(naphthalen-2-yl)-1H-imidazol-2-yl)-1,4-diazepan-1-yl)ethan-1-one]	100 to 500
CCC(=O)CCCN1CCN(C(=O)Cc2ccccc2)C(c2ncc(-c3ccc4ccccc4c3)[nH]2)C1 (stereo not shown)	1010 to 5000
COc1nc2ccccc2cc1-c1cnc([C@@H]2CN(Cc3cnn(C)c3)CCN2C(=O)Cn2c(C(F)(F)F)nc3ccccc32)[nH]1	100 to 500
COc1nc2ccccc2cc1-c1cnc(C2CN(Cc3cn(C)nn3)CCN2C(=O)Cc2c(C)[nH]c3ccc(F)cc23)[nH]1 (stereo not shown)	100 to 500
COc1ccc2nc(C)n(CC(=O)N3CCN(CC4CCOC4)C[C@H]3c3ncc(C#Cc4ccccn4)[nH]3)c2c1 (stereo partly drawn) [2-(6-methoxy-2-methyl-1H-benzo[d]imidazol-1-yl)-1-((2S)-2-(5-(pyridin-2-ylethynyl)-1H-imidazol-2-yl)-4-((tetrahydrofuran-3-yl)methyl)piperazin-1-yl)ethan-1-one]	1010 to 5000
COc1ccc2nc(C)n(CC(=O)N3CCN(C4CCOC4)C[C@H]3c3ncc(-c4cc5ccccc5nc4OC)[nH]3)c2c1 (stereo partly shown)	100 to 500
Cn1cc(CC(=O)N2CCN(CC3CC3)CC2c2ncc(-c3ccc4ccccc4c3)[nH]2)c2ccccc21 (stereo not shown)	1010 to 5000
COc1nc2ccccc2cc1-c1cnc(C2CCN(Cc3ccn(C)n3)CCN2C(=O)Cc2c(C)[nH]c3ccc(F)cc23)[nH]1 (stereo not shown) [2-(5-fluoro-2-methyl-1H-indol-3-yl)-1-(7-(5-(2-methoxyquinolin-3-yl)-1H-imidazol-2-yl)-4-((1-methyl-1H-pyrazol-3-yl)methyl)-1,4-diazepan-1-yl)ethan-1-one]	< 100
COc1nc2ccccc2cc1-c1cnc([C@@H]2CN(CC3COC3)CCN2C(=O)Cn2c(C(F)(F)F)nc3ccccc32)[nH]1 [(S)-1-(2-(5-(2-methoxyquinolin-3-yl)-1H-imidazol-2-yl)-4-(oxetan-3-ylmethyl)piperazin-1-yl)-2-(2-(trifluoromethyl)-1H-benzo[d]imidazol-1-yl)ethan-1-one]	< 100
COc1ccc2nc(C)n(CC(=O)N3CCN(Cc4ccn(C)n4)CC[C@@H]3c3ncc(-c4cc5ccccc5nc4OC)[nH]3)c2c1 [(R)-2-(6-methoxy-2-methyl-1H-benzo[d]imidazol-1-yl)-1-(7-(5-(2-methoxyquinolin-3-yl)-1H-imidazol-2-yl)-4-((1-methyl-1H-pyrazol-3-yl)methyl)-1,4-diazepan-1-yl)ethan-1-one]	< 100
COc1ccc2nc(C(F)(F)F)n(CC(=O)N3CC[C@H](NCc4ccon4)C[C@H]3c3ncc(-c4cc5ccccc5nc4OC)[nH]3)c2c1 [1-((2S,4S)-4-((isoxazol-3-ylmethyl)amino)-2-(5-(2-methoxyquinolin-3-yl)-1H-imidazol-2-yl)piperidin-1-yl)-2-(6-methoxy-2-(trifluoromethyl)-1H-benzo[d]imidazol-1-yl)ethan-1-one]	< 100
COc1ccc2nc(C(F)(F)F)n(CC(=O)N3CCS(=O)(=O)CC3c3ncc(-c4cc5ccccc5nc4OC)[nH]3)c2c1 (stereo not shown) [2-(6-methoxy-2-(trifluoromethyl)-1H-benzo[d]imidazol-1-yl)-1-(3-(5-(2-methoxyquinolin-3-yl)-1H-imidazol-2-yl)-1,1-dioxidothiomorpholino)ethan-1-one]	100 to 500
